Measured values published in US20260176320A1, “MODULATORS OF G-PROTEIN COUPLED RECEPTORS” (priority 2018, published 2026).
Where two headings read alike, the source gives them in different places. Square brackets hold non-standard residues; d marks the D form. Peptide text beside a SMILES is read from it. * marks the point of attachment. X1 = O=C(CSCC(=O)*)NCCN1C(=O)c2ccccc2C1=O; Aib = CC(C)(N)C(=O)O

Legend:
Format in all cases: cell-based
GLP-1R [1] = target: T1, GLP-1R (Homo sapiens, UniProt P43220); assay: HitHunter cAMP assay (GLP-1R); conditions: cAMP; for Emax: read-out: (Emax) GLP-1R
T1 sequence (P43220 24-463): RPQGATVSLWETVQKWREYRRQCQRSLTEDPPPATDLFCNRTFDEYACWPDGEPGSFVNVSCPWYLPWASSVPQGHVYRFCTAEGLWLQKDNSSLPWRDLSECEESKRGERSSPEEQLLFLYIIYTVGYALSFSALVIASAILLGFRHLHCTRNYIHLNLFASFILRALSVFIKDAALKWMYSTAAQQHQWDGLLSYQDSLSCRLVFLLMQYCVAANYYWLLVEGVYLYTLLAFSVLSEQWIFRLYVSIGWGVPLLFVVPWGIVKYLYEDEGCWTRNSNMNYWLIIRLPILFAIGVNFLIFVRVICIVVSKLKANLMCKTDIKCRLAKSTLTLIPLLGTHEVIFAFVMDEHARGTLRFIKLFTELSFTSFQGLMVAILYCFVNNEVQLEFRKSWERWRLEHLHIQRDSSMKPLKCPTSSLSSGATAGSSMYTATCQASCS
Outline: (§1)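 Suspension cells (10,000/well) in HBSS with 10 mM HEPES, 625 μM IBMX, 0.2% BSA exposed to 22-point 2-fold agonist series in duplicate for 30 min at room temperature. cAMP measured by antibody immunocompetition with overnight development, luminescence read-out.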

GIP-R = target: T2, GIP-R (Homo sapiens, UniProt P48546); assay: HitHunter cAMP assay (GIP-R); conditions: cAMP; for Emax: read-out: (Emax) GIP-R
T2 sequence (P48546 22-466): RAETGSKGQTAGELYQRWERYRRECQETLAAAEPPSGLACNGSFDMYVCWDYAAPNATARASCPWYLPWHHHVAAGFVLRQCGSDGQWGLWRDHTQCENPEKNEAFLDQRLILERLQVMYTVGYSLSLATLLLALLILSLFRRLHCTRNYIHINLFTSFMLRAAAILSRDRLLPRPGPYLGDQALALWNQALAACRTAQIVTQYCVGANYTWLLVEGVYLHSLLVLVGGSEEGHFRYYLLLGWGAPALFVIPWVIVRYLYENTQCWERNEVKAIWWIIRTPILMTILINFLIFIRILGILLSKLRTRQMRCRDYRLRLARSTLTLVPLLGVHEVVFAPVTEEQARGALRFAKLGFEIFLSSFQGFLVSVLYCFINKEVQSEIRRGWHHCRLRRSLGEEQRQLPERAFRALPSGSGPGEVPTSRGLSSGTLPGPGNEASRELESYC
Outline: as §1

GLP-1R [2] = target: T1, GLP-1R; assay: PathHunter β-arrestin assay
Outline: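 Cells (5,000/well) plated overnight, then exposed to a 22-point 2-fold agonist dilution series in medium with 0.2% BSA for 90 min at 37 °C, 5% CO2. PathHunter detection reagent added; after 3 h at room temperature in the dark, luminescence read.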

[3] = Table 3A, read-out: EC50 GLP-1R/nM
[4] = Table 3A, read-out: EC50 GIP-R/nM
[5] = PathHunter β-arrestin assay, read-out: β-arrestin activity EC50

| SMILES | EC50 (GLP-1R [1]; [3]) [nM] | Emax (GIP-R; Table 3A) [%] | EC50 (GIP-R; [4]) [nM] | EC50 (GLP-1R [2]; [5]) [nM] | Emax (GLP-1R [1]; Table 3) [%] | EC50 (GLP-1R [1]; Table 3, read-out: EC50 GLP-1R/nM) [nM] | Emax (GLP-1R [1]; Table 3A) [%] | Emax (GIP-R; Table 3) [%] | EC50 (GIP-R; Table 3, read-out: EC50 GIP-R/nM) [nM] | EC50 (GLP-1R [1]; EC50 GLP-1R/nM, Table 3) [nM] | EC50 (GLP-1R [1]; EC50 GLP-1R/nM, Table 3A) [nM] | EC50 (GIP-R; EC50 GIP-R/nM, Table 3) [nM] | EC50 (GIP-R; EC50 GIP-R/nM, Table 3A) [nM] | EC50 (GLP-1R [2]) [nM] | EC50 (GIP-R; read-out: EC50 GIP-R/nM, Table 3) [nM] | EC50 (GIP-R; read-out: EC50 GIP-R/nM, Table 3A) [nM] |
| --- | --- | --- | --- | --- | --- | --- | --- | --- | --- | --- | --- | --- | --- | --- | --- | --- |
| CCCCCCCCCCCCCCCC(=O)N[C@@H](CCC(=O)NCCCC[C@H](NC(=O)[C@H](CO)NC(=O)[C@@H]1CCCN1C(=O)[C@@H]1CCCN1C(=O)[C@@H]1CCCN1C(=O)[C@H](C)NC(=O)CNC(=O)[C@H](CO)NC(=O)[C@H](CO)NC(=O)[C@@H]1CCCN1C(=O)CNC(=O)CNC(=O)[C@H](C)NC(=O)[C@H](CC(C)C)NC(=O)[C@H](CC(C)C)NC(=O)[C@H](Cc1c[nH]c2ccccc12)NC(=O)[C@H](CC(N)=O)NC(=O)[C@@H](NC(=O)[C@H](Cc1ccccc1)NC(=O)[C@H](CCC(=O)O)NC(=O)C(C)(C)NC(=O)[C@H](C)NC(=O)[C@H](C)NC(=O)[C@H](CCC(N)=O)NC(=O)[C@H](CCCCN)NC(=O)[C@H](CC(=O)O)NC(=O)[C@H](CC(C)C)NC(=O)[C@](C)(Cc1ccc(O)cc1)NC(=O)[C@@H](NC(=O)[C@H](CO)NC(=O)[C@H](Cc1ccc(O)cc1)NC(=O)[C@H](CC(=O)O)NC(=O)[C@H](CO)NC(=O)[C@@H](NC(=O)[C@H](Cc1ccccc1)NC(=O)[C@@H](NC(=O)CNC(=O)[C@H](CCC(=O)O)NC(=O)CSCC(=O)NCCN1CCCCC1=O)[C@@H](C)O)[C@@H](C)O)[C@@H](C)CC)C(C)C)C(N)=O)C(=O)O [Compound 225] | 0.1 to 1 | 70 to 80 | 1 to 10 | > 1000 |  |  |  |  |  |  |  |  |  |  |  |  |
| CC[C@H](C)[C@H](NC(=O)[C@H](CO)NC(=O)[C@H](Cc1ccc(O)cc1)NC(=O)[C@H](CC(=O)O)NC(=O)[C@H](CO)NC(=O)[C@@H](NC(=O)[C@H](Cc1ccccc1)NC(=O)[C@@H](NC(=O)CNC(=O)[C@H](CCC(=O)O)NC(=O)CSCC(=O)NCCCN1C(=O)c2ccccc2C1=O)[C@@H](C)O)[C@@H](C)O)C(=O)N[C@@H](Cc1ccc(O)cc1)C(=O)N[C@@H](CC(C)C)C(=O)N[C@@H](CC(=O)O)C(=O)N[C@@H](CCCCN)C(=O)N[C@@H](CCC(N)=O)C(=O)N[C@@H](C)C(=O)N[C@@H](C)C(=O)NC(C)(C)C(=O)N[C@@H](CCC(=O)O)C(=O)N[C@@H](Cc1ccccc1)C(=O)N[C@H](C(=O)N[C@@H](CC(N)=O)C(=O)N[C@@H](Cc1c[nH]c2ccccc12)C(=O)N[C@@H](CC(C)C)C(=O)N[C@@H](CC(C)C)C(=O)N[C@@H](C)C(=O)NCC(=O)NCC(=O)N1CCC[C@H]1C(=O)N[C@@H](CO)C(=O)N[C@@H](CO)C(=O)NCC(=O)N[C@@H](C)C(=O)N1CCC[C@H]1C(=O)N1CCC[C@H]1C(=O)N1CCC[C@H]1C(=O)N[C@@H](CO)C(=O)N[C@@H](CCCCN)C(N)=O)C(C)C [Compound 180] | 10 to 100 | 84 | 10 to 100 | > 1000 | 94 | 10 to 100 | 94 | 84 | 10 to 100 |  |  |  |  |  |  |  |
| CC[C@H](C)[C@H](NC(=O)[C@H](CO)NC(=O)[C@H](Cc1ccc(O)cc1)NC(=O)[C@H](CC(=O)O)NC(=O)[C@H](CO)NC(=O)[C@@H](NC(=O)[C@H](Cc1ccccc1)NC(=O)[C@@H](NC(=O)CNC(=O)[C@H](CCC(=O)O)NC(=O)CCCC(=O)NCCN1C(=O)c2ccccc2C1=O)[C@@H](C)O)[C@@H](C)O)C(=O)N[C@@H](Cc1ccc(O)cc1)C(=O)N[C@@H](CC(C)C)C(=O)N[C@@H](CC(=O)O)C(=O)N[C@@H](CCCCN)C(=O)N[C@@H](CCC(N)=O)C(=O)N[C@@H](C)C(=O)N[C@@H](C)C(=O)NC(C)(C)C(=O)N[C@@H](CCC(=O)O)C(=O)N[C@@H](Cc1ccccc1)C(=O)N[C@H](C(=O)N[C@@H](CC(N)=O)C(=O)N[C@@H](Cc1c[nH]c2ccccc12)C(=O)N[C@@H](CC(C)C)C(=O)N[C@@H](CC(C)C)C(=O)N[C@@H](C)C(=O)NCC(=O)NCC(=O)N1CCC[C@H]1C(=O)N[C@@H](CO)C(=O)N[C@@H](CO)C(=O)NCC(=O)N[C@@H](C)C(=O)N1CCC[C@H]1C(=O)N1CCC[C@H]1C(=O)N1CCC[C@H]1C(=O)N[C@@H](CO)C(=O)N[C@@H](CCCCN)C(N)=O)C(C)C [Compound 188] |  | 107 |  |  | 101 |  | 101 | 107 |  | 10 to 100 | 10 to 100 | 1 to 10 | 1 to 10 | > 1000 |  |  |
| CCCCCCCCCCCCCCCC(=O)N[C@@H](CCC(=O)NCCCC[C@H](NC(=O)[C@H](CO)NC(=O)[C@@H]1CCCN1C(=O)[C@@H]1CCCN1C(=O)[C@@H]1CCCN1C(=O)[C@H](C)NC(=O)CNC(=O)[C@H](CO)NC(=O)[C@H](CO)NC(=O)[C@@H]1CCCN1C(=O)CNC(=O)CNC(=O)[C@H](C)NC(=O)[C@H](CC(C)C)NC(=O)[C@H](CC(C)C)NC(=O)[C@H](Cc1c[nH]c2ccccc12)NC(=O)[C@H](CC(N)=O)NC(=O)[C@@H](NC(=O)[C@H](Cc1ccccc1)NC(=O)[C@H](CCC(=O)O)NC(=O)C(C)(C)NC(=O)[C@H](C)NC(=O)[C@H](C)NC(=O)[C@H](CCC(N)=O)NC(=O)[C@H](CCCCN)NC(=O)[C@H](CC(=O)O)NC(=O)[C@H](CC(C)C)NC(=O)[C@H](Cc1ccc(O)cc1)NC(=O)[C@@H](NC(=O)[C@H](CO)NC(=O)[C@H](Cc1ccc(O)cc1)NC(=O)[C@H](CC(=O)O)NC(=O)[C@H](CO)NC(=O)[C@@H](NC(=O)[C@H](Cc1ccccc1)NC(=O)[C@@H](NC(=O)CNC(=O)[C@H](CCC(=O)O)NC(=O)CSCC(=O)NCCN1CCS(=O)(=O)CC1=O)[C@@H](C)O)[C@@H](C)O)[C@@H](C)CC)C(C)C)C(N)=O)C(=O)O [Compound 29] |  | 11 |  |  | 98 |  | 98 | 11 |  | 1 to 10 | 1 to 10 | 1 to 10 | 100 to 1000 | > 1000 |  |  |
| CC[C@H](C)[C@H](NC(=O)[C@H](CO)NC(=O)[C@H](Cc1ccc(O)cc1)NC(=O)[C@H](CC(=O)O)NC(=O)[C@H](CO)NC(=O)[C@@H](NC(=O)[C@H](Cc1ccccc1)NC(=O)[C@@H](NC(=O)CNC(=O)[C@H](CCC(=O)O)NC(=O)CSCC(=O)NCCN1C(=O)c2ccccc2C1=O)[C@@H](C)O)[C@@H](C)O)C(=O)N[C@@H](Cc1ccc(O)cc1)C(=O)N[C@@H](CC(C)C)C(=O)N[C@@H](CC(=O)O)C(=O)N[C@@H](CCCCN)C(=O)N[C@@H](CCC(N)=O)C(=O)N[C@@H](C)C(=O)N[C@@H](C)C(=O)NC(C)(C)C(=O)N[C@@H](CC(C)C)C(=O)N[C@@H](Cc1ccccc1)C(=O)N[C@H](C(=O)N[C@@H](CC(N)=O)C(=O)N[C@@H](Cc1c[nH]c2ccccc12)C(=O)N[C@@H](CC(C)C)C(=O)N[C@@H](CC(C)C)C(=O)N[C@@H](C)C(=O)NCC(=O)NCC(=O)N1CCC[C@H]1C(=O)N[C@@H](CO)C(=O)N[C@@H](CO)C(=O)NCC(=O)N[C@@H](C)C(=O)N1CCC[C@H]1C(=O)N1CCC[C@H]1C(=O)N1CCC[C@H]1C(=O)N[C@@H](CO)C(=O)N[C@@H](CCCCN)C(N)=O)C(C)C [Compound 145] (X1-EGTFTSDYSIYLDKQAA[Aib]LFVNWLLAGGPSSGAPPPSK-NH2) |  | 125 |  |  | 100 to 104 |  | 100 to 104 | 125 |  | 1 to 10 | 1 to 10 |  |  | > 1000 | < 1 | < 1 |
| CC[C@H](C)[C@H](NC(=O)[C@H](CO)NC(=O)[C@H](Cc1ccc(O)cc1)NC(=O)[C@H](CC(=O)O)NC(=O)[C@H](CO)NC(=O)[C@@H](NC(=O)[C@H](Cc1ccccc1)NC(=O)[C@@H](NC(=O)CNC(=O)[C@H](CCC(=O)O)NC(=O)CSCC(=O)NCCN1C(=O)[C@H]2CCCC[C@H]2C1=O)[C@@H](C)O)[C@@H](C)O)C(=O)N[C@@H](Cc1ccc(O)cc1)C(=O)N[C@@H](CC(C)C)C(=O)N[C@@H](CC(=O)O)C(=O)N[C@@H](CCCCN)C(=O)N[C@@H](CCC(N)=O)C(=O)N[C@@H](C)C(=O)N[C@@H](C)C(=O)NC(C)(C)C(=O)N[C@@H](CCC(=O)O)C(=O)N[C@@H](Cc1ccccc1)C(=O)N[C@H](C(=O)N[C@@H](CC(N)=O)C(=O)N[C@@H](Cc1c[nH]c2ccccc12)C(=O)N[C@@H](CC(C)C)C(=O)N[C@@H](CC(C)C)C(=O)N[C@@H](C)C(=O)NCC(=O)NCC(=O)N1CCC[C@H]1C(=O)N[C@@H](CO)C(=O)N[C@@H](CO)C(=O)NCC(=O)N[C@@H](C)C(=O)N1CCC[C@H]1C(=O)N1CCC[C@H]1C(=O)N1CCC[C@H]1C(=O)N[C@@H](CO)C(=O)N[C@@H](CCCCN)C(N)=O)C(C)C [Compound 159] |  | 89 to 92 |  |  | 87 to 91 |  | 87 to 91 | 89 to 92 |  | 10 to 100 | 10 to 100 | 1 to 10 | 1 to 10 | > 1000 |  |  |
